Reference: ChEMBL document CHEMBL1201862, “PubChem BioAssay data set” (2004)
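Compound exposure: 48 hours, 5 concentrations, 96-well plates. The concentration for 50% growth inhibition is given as GI50.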 Calls of active or inactive are those of the source. No stated cut-off is given here; in the data, active = GI50 up to about 1.1 µM and inactive = higher.

Key:
Test in all cases: NCI-60 cell line screen, 48 h
[1] = test system: HT-29
[2] = test system: OVCAR-8
[3] = test system: SR
[4] = test system: IGROV-1
[5] = test system: K562
[6] = test system: OVCAR-3
[7] = test system: DU-145
[8] = test system: EKVX
[9] = test system: NCI-H460
[10] = test system: MDA-MB-231
[11] = test system: A498
[12] = test system: SK-MEL-5
[13] = test system: HOP-62
[14] = test system: TK-10
[15] = test system: CCRF-CEM
[16] = test system: UO-31
[17] = test system: PC-3
[18] = test system: LOX IMVI
[19] = test system: HCC 2998

Measured: GI50

C[N+](CCCl)(CCCl)Cc1cccc2cccc([N+](=O)[O-])c12
inactive: [1] 55.8 µM | [2] 43.5 µM | [3] 5.83 µM | [4] 56.4 µM | [5] > 100 µM | [6] 44.7 µM | [7] > 100 µM | [8] > 100 µM | [9] 53.8 µM | [10] > 100 µM | [11] > 100 µM | [12] 53.3 µM | [13] 89.1 µM | [14] > 100 µM | [15] 73.6 µM | [16] > 100 µM | [17] 85.3 µM | [18] 48.1 µM

O=C(CCN1CCCCC1)c1csc2ccccc12
inactive: [1] > 100 µM | [2] > 100 µM | [3] > 100 µM | [4] > 100 µM | [5] > 100 µM | [6] > 100 µM | [7] > 100 µM | [8] > 100 µM | [9] > 100 µM | [10] > 100 µM | [11] > 100 µM | [12] > 100 µM | [13] > 100 µM | [14] 94.6 µM | [16] > 100 µM | [17] > 100 µM | [18] > 100 µM

CCOC(=O)C(NC(=O)c1ccccc1)(N1CCOCC1)C(F)(F)F (stereo not given)
inactive: [1] > 100 µM | [2] > 100 µM | [19] > 100 µM | [3] > 100 µM | [4] > 100 µM | [5] > 100 µM | [6] > 100 µM | [7] > 100 µM | [8] > 100 µM | [10] > 100 µM | [12] > 100 µM | [13] > 100 µM | [14] > 100 µM | [15] > 100 µM | [16] > 100 µM | [17] > 100 µM | [18] > 100 µM

COC(=O)C[C@@H]1C(C)(C)[C@@H]2O[C@@]34C[C@@H]2C(=O)[C@]1(C)[C@H]3CC[C@@]1(C)[C@H](c2ccoc2)OC(=O)C[C@]14O
inactive: [1] > 100 µM | [2] > 100 µM | [3] > 100 µM | [4] > 100 µM | [5] > 100 µM | [6] > 100 µM | [7] > 100 µM | [8] > 100 µM | [9] > 100 µM | [10] > 100 µM | [11] > 100 µM | [12] > 100 µM | [13] > 100 µM | [14] > 100 µM | [15] > 100 µM | [17] > 100 µM | [18] > 100 µM

C1COCCOP2(N3CC3)=NP(N3CC3)(=NP(N3CC3)(N3CC3)=N2)OCCOCCO1 (stereo not given)
inactive: [1] > 100 µM | [2] > 100 µM | [3] 50.4 µM | [4] > 100 µM | [5] > 100 µM | [6] > 100 µM | [7] 37.4 µM | [8] > 100 µM | [10] > 100 µM | [11] > 100 µM | [12] > 100 µM | [13] > 100 µM | [14] > 100 µM | [15] 77.3 µM | [16] > 100 µM | [17] > 100 µM | [18] 25.4 µM

O=C(NCCn1ccnn1)Nc1ccccc1
inactive: [1] > 100 µM | [2] > 100 µM | [19] > 100 µM | [3] > 100 µM | [4] > 100 µM | [5] > 100 µM | [7] > 100 µM | [8] > 100 µM | [9] > 100 µM | [10] > 100 µM | [12] > 100 µM | [13] > 100 µM | [14] > 100 µM | [15] > 100 µM | [17] > 100 µM | [18] > 100 µM

CCOc1ccc(-n2nnc3c(N)nc(N)nc32)cc1
inactive: [1] > 100 µM | [2] > 100 µM | [3] > 100 µM | [4] > 100 µM | [5] > 100 µM | [6] > 100 µM | [7] > 100 µM | [8] > 100 µM | [9] > 100 µM | [10] > 100 µM | [11] > 100 µM | [12] > 100 µM | [13] > 100 µM | [14] > 100 µM | [15] > 100 µM | [17] > 100 µM | [18] > 100 µM

O=C(NN=C1NCCCN1)c1ccco1
inactive: [1] > 100 µM | [2] > 100 µM | [19] > 100 µM | [3] > 100 µM | [4] > 100 µM | [5] > 100 µM | [6] > 100 µM | [7] > 100 µM | [8] > 100 µM | [9] > 100 µM | [10] > 100 µM | [12] > 100 µM | [13] > 100 µM | [14] > 100 µM | [15] > 100 µM | [16] > 100 µM | [17] > 100 µM | [18] > 100 µM

O=C(N/N=C/c1ccc([N+](=O)[O-])cc1)c1cccc2nc3ccccc3nc12
inactive: [1] > 100 µM | [2] > 90.8 µM | [3] > 39.5 µM | [4] > 100 µM | [5] > 70.3 µM | [6] > 100 µM | [7] 65 µM | [8] > 100 µM | [9] 1.5 µM | [10] > 70.3 µM | [11] > 100 µM | [12] 2.07 µM | [13] 1.74 µM | [14] > 38 µM | [15] > 92.5 µM | [16] > 71.4 µM | [17] > 75.9 µM | [18] > 85.5 µM

C#CCn1c(=O)c2cc(OC)c(OC)cc2n(CC#C)c1=O
inactive: [1] > 10 µM | [2] > 10 µM | [19] > 10 µM | [4] > 10 µM | [5] > 10 µM | [6] > 10 µM | [7] > 10 µM | [8] > 10 µM | [9] > 10 µM | [10] > 10 µM | [11] > 10 µM | [12] > 10 µM | [13] > 10 µM | [14] > 10 µM | [15] > 10 µM | [16] > 10 µM | [17] > 10 µM | [18] > 10 µM

O=S(=O)(O)c1ccc2c(/N=N\c3ccc(F)cc3)c(O)c(S(=O)(=O)O)cc2c1
inactive: [1] > 100 µM | [2] > 100 µM | [3] > 100 µM | [4] > 100 µM | [5] > 100 µM | [6] > 100 µM | [7] > 100 µM | [8] > 100 µM | [10] > 100 µM | [11] > 100 µM | [12] > 100 µM | [13] > 100 µM | [14] > 100 µM | [15] > 100 µM | [16] > 100 µM | [17] > 100 µM | [18] > 100 µM
